Patent US20150173369A1, “S[…] CONTROL AND IMPROVED CROP TOLERANCE FROM COMBINATIONS OF 2,4-D-CHOLINE, GLYPHOSATE, AND G[…] 2,4-D-, GLYPHOSATE- AND GLUFOSINATE-TOLERANT SOYBEANS, CORN, COTTON AND OTHER CROP AREAS” (Dow AgroSciences LLC, priority 2013, published 2015)
“And” between values parts separate entries of the source, which are not always exact repeats. Equal values may be shown once.

Columns and labels:
[1] = system: Salsola tragus L. (Russian thistle, SASKR); assay: Field trials, post-emergence weed control (% visual control); format: in vivo; conditions: 542 g ae/ha alone
Method: (§1) Field trials were conducted under agricultural field conditions in multiple states in the United States, including but not limited to Arkansas, Iowa, Illinois, Indiana, Kansas, Minnesota, Mississippi, Missouri, New York, Tennessee and Wisconsin. Trials were established as RCB (randomized complete block) design, with 3-4 replicates per treatment, and plot sizes varying from 5-10 feet (ft) wide by 12-30 ft long. Treatments were applied with small plot backpack sprayers, using pressurized carbon dioxide (CO2) as propellant. Pressure varied from 17-52 pounds per square inch (psi), with spray tips typically of a Flat Fan type applying water diluent at 15 gallons per acre (GPA). Boom sizes varied from 5-11 ft in width. Treatments were applied to soybean, cotton, corn or fallow crop land. Weed sizes varied, but all treatments were applied as post-emergence treatments to weeds from 2 leaf to 2 tiller growth stages varying from 3 to 17 inches in height. The weed spectrum included, but was not limited to, Amaranthus palmeri S. Wats. (Palmer amaranth, AMAPA), Ambrosia trifida L. (giant ragweed, AMBTR), Conyza canadensis (L.) Cronq. (horseweed, ERICA) and Salsola tragus L. (Russian thistle, SASKR).
(§2) Glyphosate-, 2,4-D- and glufosinate-tolerant soybeans, corn or cotton comprising genes for tolerance for each herbicide as described above were used in all trials either as a breeding stack of one to three herbicide-tolerant events or as a molecular stack where all three herbicide tolerance traits were transformed into a single event.
(§3) The 2,4-D-choline salt plus glyphosate premix formulation was a 400 g ae/L SL containing 195 g ae/L 2,4-D-choline salt and 205 g ae/L glyphosate-dimethylammonium (DMA) salt. […] All treatments were mixed in water at appropriate formulated product rates to achieve the desired rates as shown based on a unit area of application (hectare). Treatments were rated at 1 to 28 days after application (DAA) as compared to the untreated control plants. The trial sites had naturally occurring populations of weeds. The treated plots and control plots were rated blind at various intervals after application.
(§4) Colby's equation was used to determine the herbicidal effects expected from the mixtures (Colby, S. R. Calculation of the synergistic and antagonistic response of herbicide combinations. Weeds 1967, 15, 20-22). A t-test (alpha=0.05) between Colby predictions and observed combinations was used to test for significant differences indicating synergy or antagonism using replicate data. The results presented in the Tables were significant according to the described criteria. The following equation was used to calculate the expected activity of mixtures containing three active ingredients, A. B, and C: […]

[2] = system: Amaranthus palmeri S. Wats. (Palmer amaranth, AMAPA); assay: as above; format: in vivo; conditions: 542 g ae/ha alone
Method: as §1, §2, §3, §4

[3] = system: Conyza canadensis (L.) Cronq. (horseweed, ERICA); assay: as above; format: in vivo; conditions: ERICA 14DAA; 542 g ae/ha alone
Method: as §1, §2, §3, §4

[4] = system: Ambrosia trifida L. (giant ragweed, AMBTR); assay: as above; format: in vivo; conditions: 542 g ae/ha alone
Method: as §1, §2, §3, §4

[5] = system: AAD12 Soybean (GLXMA); assay: Field trials, crop tolerance (% visual crop injury); format: in vivo, Glycine max L.
Method: as §1, §2, §3
as §4, with “The results presented in the Tables were significant according to the described criteria.” left out

CP(=O)(O)CCC(N)C(=O)O (centres unmarked) [Glufosinate-Ammonium, ammonium (3-amino-3-carboxypropyl)(methyl)phosphinate]
Mean % Weed Control ([1]; SASKR 21DAA): 13.8%
Mean % Weed Control ([1]; SASKR 28DAA): 15%
Mean % Weed Control ([2]; AMAPA 7DAA): 67.5%
Mean % Weed Control ([2]; AMAPA 8DAA): 32.5%
Mean % Weed Control ([2]; AMAPA 11DAA): 33.8%
Mean % Weed Control ([2]; AMAPA 13DAA): 31.3%
Mean % Weed Control ([2]; AMAPA 14DAA): 10.0%
Mean % Weed Control ([2]; AMAPA 16DAA): 36.7%
Mean % Weed Control ([2]; AMAPA 21DAA): 38.8%
Mean % Weed Control ([2]; AMAPA 23DAA): 21.7%
Mean % Weed Control [3]: 76.8%
Mean % Weed Control ([4]; AMBTR 8DAA): 56.7%
Mean % Weed Control ([4]; AMBTR 21DAA): 36.7%
Mean % visual crop injury ([5]; GLXMA 1DAA, 542 g ae/ha alone): 12.5%
Mean % visual crop injury ([5]; GLXMA 1DAA, 822 g ae/ha alone): 16.3%
Mean % visual crop injury ([5]; GLXMA 1DAA, 1084 g ae/ha alone): 20.0%
Mean % visual crop injury ([5]; GLXMA 2DAA, 822 g ae/ha alone): 9.5% and 12.3% and 11.3% and 8.3% and 7.5% and 7.3% and 13.8%
Mean % visual crop injury ([5]; GLXMA 2DAA, 1084 g ae/ha alone): 13.0% and 15.5% and 11.3% and 11.8% and 8.5% and 7.8% and 7.5%
Mean % visual crop injury ([5]; GLXMA 4DAA, 542 g ae/ha alone): 3.8% and 2.8% and 6.3%
Mean % visual crop injury ([5]; GLXMA 5DAA, 542 g ae/ha alone): 4.0%
Mean % visual crop injury ([5]; GLXMA 5DAA, 1084 g ae/ha alone): 7.8%
Mean % visual crop injury ([5]; GLXMA 6DAA, 823 g ae/ha alone): 33.3%
Mean % visual crop injury ([5]; GLXMA 7DAA, 542 g ae/ha alone): 3.3%
Mean % visual crop injury ([5]; GLXMA 8DAA, 542 g ae/ha alone): 2.8%
Mean % visual crop injury ([5]; GLXMA 9DAA, 822 g ae/ha alone): 5.5%
Mean % visual crop injury ([5]; GLXMA 9DAA, 1084 g ae/ha alone): 6.0%
Mean % visual crop injury ([5]; GLXMA 10DAA, 1084 g ae/ha alone): 8.5% and 10.0%
Mean % visual crop injury ([5]; GLXMA 13DAA, 823 g ae/ha alone): 10.7%
Mean % visual crop injury ([5]; GLXMA 13DAA, 1084 g ae/ha alone): 8.5%
Mean % visual crop injury ([5]; GLXMA 14DAA, 542 g ae/ha alone): 5.8% and 12.5%
Mean % visual crop injury ([5]; GLXMA 15DAA, 542 g ae/ha alone): 4.5%
Mean % visual crop injury ([5]; GLXMA 15DAA, 822 g ae/ha alone): 2.3% and 5.0%
Mean % visual crop injury ([5]; GLXMA 15DAA, 1084 g ae/ha alone): 5.5% and 8.5% and 2.3%
Mean % visual crop injury ([5]; GLXMA 16DAA, 542 g ae/ha alone): 3.0%
Mean % visual crop injury ([5]; GLXMA 16DAA, 822 g ae/ha alone): 4.0%
Mean % visual crop injury ([5]; GLXMA 16DAA, 1084 g ae/ha alone): 5.0% and 5.5%
Mean % visual crop injury ([5]; GLXMA 21DAA, 542 g ae/ha alone): 4.0%
Mean % visual crop injury ([5]; GLXMA 21DAA, 822 g ae/ha alone): 5.0%
Mean % visual crop injury ([5]; GLXMA 21DAA, 1084 g ae/ha alone): 6.0%
Mean % visual crop injury ([5]; table title: % Visual Necrosis, GLXMA 2DAA, 1084 g ae/ha alone): 25.0%
Mean % visual crop injury ([5]; table title: % Visual Necrosis, GLXMA 3DAA, 542 g ae/ha alone): 0.0%
Mean % visual crop injury ([5]; table title: % Visual Necrosis, GLXMA 3DAA, 822 g ae/ha alone): 0.8%
Mean % visual crop injury ([5]; table title: % Visual Necrosis, GLXMA 3DAA, 1084 g ae/ha alone): 3.0% and 8.5% and 1.5% and 1.3%
Mean % visual crop injury ([5]; table title: % Visual Necrosis, GLXMA 5DAA, 542 g ae/ha alone): 2.8%
Mean % visual crop injury ([5]; table title: % Visual Necrosis, GLXMA 7DAA, 542 g ae/ha alone): 0.5% and 0.3%
Mean % visual crop injury ([5]; table title: % Visual Necrosis, GLXMA 7DAA, 822 g ae/ha alone): 0.8% and 0.0% and 10.0% and 1.0% and 1.3%
Mean % visual crop injury ([5]; table title: % Visual Necrosis, GLXMA 7DAA, 1084 g ae/ha alone): 3.3% and 1.3% and 10.0% and 2.0% and 2.3%
Mean % visual crop injury ([5]; table title: % Visual Necrosis, GLXMA 8DAA, 822 g ae/ha alone): 7.5%
Mean % visual crop injury ([5]; table title: % Visual Necrosis, GLXMA 8DAA, 1084 g ae/ha alone): 10.0% and 12.5% and 6.5%
Mean % visual crop injury ([5]; table title: % Visual Necrosis, GLXMA 9DAA, 822 g ae/ha alone): 6.0%
Mean % visual crop injury ([5]; table title: % Visual Necrosis, GLXMA 10DAA, 1084 g ae/ha alone): 2.3%
Mean % visual crop injury ([5]; table title: % Visual Necrosis, GLXMA 14DAA, 822 g ae/ha alone): 0.0% and 1.0%
Mean % visual crop injury ([5]; table title: % Visual Necrosis, GLXMA 14DAA, 1084 g ae/ha alone): 5.0% and 2.0%
Mean % visual crop injury ([5]; table title: % Visual Necrosis, GLXMA 16DAA, 542 g ae/ha alone): 3.0%
Mean % visual crop injury ([5]; table title: % Visual Necrosis, GLXMA 16DAA, 822 g ae/ha alone): 5.0%
Mean % visual crop injury ([5]; table title: % Visual Necrosis, GLXMA 16DAA, 1084 g ae/ha alone): 1.8%
